One test addresses T1, human MET kinase D1228N (Homo sapiens, UniProt P08581, D1228N).
T1 construct: GST-tagged recombinant human MET kinase domain; purchased Signal Chem
The test is described as follows: c-Met Enzyme Assay, D1228N mutant. The test is classed as binding. Particulars: averaged IC50; D1228N 2 nM; 60-minute incubation at 22° C.; read-out: D1228 N IC50. The procedure, abridged:
(§1)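 GST-tagged recombinant MET kinase domain was incubated with 50 nM Alexa-Fluor tracer 236, 2 nM Eu-anti-GST and compound in 25 mM HEPES pH 7.4, 10 mM MgCl2, 0.01% Triton X-100, 1 mM DTT, 2% DMSO for 60 min at 22 °C. TR-FRET ratio gave percent of control, fitted 4-parameter; IC50 at 50 POC.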

Test [1] has as its target T2, MET (wt) GST-tagged recombinant human MET kinase domain (Homo sapiens, UniProt P08581).
T2 construct: GST-tagged recombinant human MET kinase domain; purchased Signal Chem
The test is described as follows: c-Met Enzyme Assay, wild type (LanthaScreen Eu Kinase Binding). Particulars: averaged IC50; MET (wt) 10 nM; 60-minute incubation at 22° C.; read-out: SigChem WT IC50. The procedure, abridged:
as §1
A general note: TR-FRET usually uses a lanthanide donor and a delayed reading to cut background.

Test [2] deals with T3, His-tagged recombinant human MER cytoplasmic domain (Homo sapiens, UniProt Q12866).
T3 construct: His-tagged recombinant human MER cytoplasmic domain
T3 sequence (Q12866 527-999 limits assumed): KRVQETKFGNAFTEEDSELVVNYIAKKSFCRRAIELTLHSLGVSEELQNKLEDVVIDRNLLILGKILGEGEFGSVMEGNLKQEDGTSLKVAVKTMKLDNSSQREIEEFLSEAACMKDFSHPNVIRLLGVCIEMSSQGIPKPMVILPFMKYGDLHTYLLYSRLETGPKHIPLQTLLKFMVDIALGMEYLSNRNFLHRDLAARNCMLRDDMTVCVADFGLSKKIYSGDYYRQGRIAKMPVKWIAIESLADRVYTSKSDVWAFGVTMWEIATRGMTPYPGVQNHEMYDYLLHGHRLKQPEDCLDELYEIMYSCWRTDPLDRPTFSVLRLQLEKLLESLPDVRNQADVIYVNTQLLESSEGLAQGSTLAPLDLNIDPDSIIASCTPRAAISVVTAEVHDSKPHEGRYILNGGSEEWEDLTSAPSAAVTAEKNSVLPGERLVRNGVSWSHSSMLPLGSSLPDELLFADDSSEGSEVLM
The test is described as follows: MER Enzyme Assay (LanthaScreen Eu Kinase Binding). As to conditions: averaged IC50; MER 5 nM; 60-minute incubation at 22° C.; TR-FRET. The procedure, abridged: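 TR-FRET binding: 5 nM His-MER cytoplasmic domain with 20 nM Tracer 236, 2 nM biotin-anti-His and 2 nM Eu-streptavidin in pH 7.4 HEPES, 10 mM MgCl2, 2% DMSO, with threefold compound dilutions, 60 min at 22 °C. Percent of control was fit to a 4-parameter logistic, and IC50 was taken at 50 POC.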

A further test has as its target T4, human MET kinase Y1230H (Homo sapiens, UniProt P08581, Y1230H).
T4 construct: GST-tagged recombinant human MET kinase domain; purchased Signal Chem
The test is described as follows: c-Met Enzyme Assay, Y1230H mutant. The format is binding. Particulars: averaged IC50; Y1230H 5 nM; 60-minute incubation at 22° C.; read-out: Y1230 H IC50. The procedure, abridged: as §1

In the next test the target is T5, human MET kinase D1228H (Homo sapiens, UniProt P08581, D1228H).
T5 construct: GST-tagged recombinant human MET kinase domain; purchased Signal Chem
T5 sequence (P08581 1078-1345 D1228H): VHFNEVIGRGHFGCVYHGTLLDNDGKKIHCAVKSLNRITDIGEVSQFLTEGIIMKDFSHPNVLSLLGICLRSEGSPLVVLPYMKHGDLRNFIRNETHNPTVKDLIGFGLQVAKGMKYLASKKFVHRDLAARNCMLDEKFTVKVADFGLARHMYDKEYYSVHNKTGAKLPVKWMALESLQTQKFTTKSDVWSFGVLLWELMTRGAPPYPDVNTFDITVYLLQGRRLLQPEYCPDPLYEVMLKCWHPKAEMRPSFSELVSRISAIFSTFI
Description: c-Met Enzyme Assay, D1228H mutant. Particulars: averaged IC50; D1228H 2 nM; 60-minute incubation at 22° C.; read-out: D1228 H IC50. The test is classed as binding. The method in brief: as §1

The target in another test is T6, human MET kinase Y1230S (Homo sapiens, UniProt P08581, Y1230S).
T6 construct: GST-tagged recombinant human MET kinase domain; purchased Signal Chem
T6 sequence (P08581 1078-1345 Y1230S): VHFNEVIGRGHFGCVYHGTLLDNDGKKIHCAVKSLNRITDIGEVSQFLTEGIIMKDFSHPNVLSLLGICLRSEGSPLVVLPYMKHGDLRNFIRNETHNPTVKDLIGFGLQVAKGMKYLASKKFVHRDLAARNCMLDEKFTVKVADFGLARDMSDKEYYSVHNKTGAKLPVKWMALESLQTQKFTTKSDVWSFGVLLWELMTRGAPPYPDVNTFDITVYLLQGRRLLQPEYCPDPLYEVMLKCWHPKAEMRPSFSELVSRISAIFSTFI
The test is described as follows: c-Met Enzyme Assay, Y1230S mutant. The format is binding. As to conditions: averaged IC50; Y1230S 8 nM; 60-minute incubation at 22° C.; read-out: Y1230 S IC50. The method in brief: as §1

In test [3] the target is T7, His-tagged recombinant human AXL cytoplasmic domain (Homo sapiens, UniProt P30530).
T7 construct: His-tagged recombinant human AXL cytoplasmic domain
T7 sequence (P30530 473-894 limits assumed): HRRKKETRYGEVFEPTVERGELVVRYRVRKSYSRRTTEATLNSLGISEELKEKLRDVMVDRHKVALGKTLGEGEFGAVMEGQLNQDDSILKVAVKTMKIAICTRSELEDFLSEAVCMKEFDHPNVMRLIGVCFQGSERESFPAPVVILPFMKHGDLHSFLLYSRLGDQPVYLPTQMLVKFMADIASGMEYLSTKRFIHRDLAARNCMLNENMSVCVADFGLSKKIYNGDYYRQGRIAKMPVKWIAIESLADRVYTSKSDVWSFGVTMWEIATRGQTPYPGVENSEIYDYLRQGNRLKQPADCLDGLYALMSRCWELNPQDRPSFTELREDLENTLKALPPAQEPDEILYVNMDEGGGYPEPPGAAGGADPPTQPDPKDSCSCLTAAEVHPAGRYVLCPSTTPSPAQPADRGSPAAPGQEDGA
Description: AXL Enzyme Assay (LanthaScreen Eu Kinase Binding). As to conditions: averaged IC50; 60-minute incubation at 22° C.; TR-FRET. The method in brief: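 TR-FRET binding-displacement format: 20 nM Alexa Fluor Tracer 236, 2 nM biotin-anti-His and 2 nM Eu-streptavidin in 25 mM HEPES pH 7.4, 10 mM MgCl2, 0.01% Triton X-100, 2% DMSO. After 60 min at 22 °C, ratiometric percent of control was fitted to a 4-parameter logistic curve, IC50 taken at 50 POC.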

8 molecules from patent publication US20200216416A1, “QUINOLINE COMPOUNDS AS INHIBITORS OF TAM AND MET KINASES” (Array BioPharma Inc., priority 2019, published 2020) can be followed below.

The structures appear in SMILES notation.

T4 sequence (P08581 1078-1345 Y1230H): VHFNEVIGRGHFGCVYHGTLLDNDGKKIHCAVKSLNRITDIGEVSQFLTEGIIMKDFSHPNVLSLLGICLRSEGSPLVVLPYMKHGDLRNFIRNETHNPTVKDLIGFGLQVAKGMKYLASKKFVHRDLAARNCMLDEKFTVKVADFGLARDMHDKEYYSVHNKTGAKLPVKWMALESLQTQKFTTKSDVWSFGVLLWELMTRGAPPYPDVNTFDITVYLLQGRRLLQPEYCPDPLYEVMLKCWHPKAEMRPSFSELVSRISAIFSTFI
T1 sequence (P08581 1078-1345 D1228N): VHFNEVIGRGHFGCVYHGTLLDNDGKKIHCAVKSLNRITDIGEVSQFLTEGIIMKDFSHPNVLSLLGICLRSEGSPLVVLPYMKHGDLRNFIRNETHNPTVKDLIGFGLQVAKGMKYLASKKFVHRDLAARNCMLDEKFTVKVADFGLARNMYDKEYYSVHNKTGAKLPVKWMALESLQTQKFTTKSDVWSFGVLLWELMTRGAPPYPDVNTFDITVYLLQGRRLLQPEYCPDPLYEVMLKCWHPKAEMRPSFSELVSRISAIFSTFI
T2 sequence (P08581 1078-1345 limits assumed): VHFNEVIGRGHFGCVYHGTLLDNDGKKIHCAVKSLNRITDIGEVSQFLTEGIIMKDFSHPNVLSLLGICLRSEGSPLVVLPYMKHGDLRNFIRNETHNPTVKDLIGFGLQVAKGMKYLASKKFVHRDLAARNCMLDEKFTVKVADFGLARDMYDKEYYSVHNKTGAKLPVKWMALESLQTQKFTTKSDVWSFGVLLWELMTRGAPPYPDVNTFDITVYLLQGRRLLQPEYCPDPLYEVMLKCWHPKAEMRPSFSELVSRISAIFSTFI

`CC(C)n1cc(C(=O)Nc2ccc(Oc3ccnc4cc(OC(F)(F)F)ccc34)cn2)c(=O)c(-c2ccc(F)cc2)c1` [Example 50, 5-(4-fluorophenyl)-1-isopropyl-4-oxo-N-(5-((7-(trifluoromethoxy)quinolin-4-yl)oxy)pyridin-2-yl)-1,4-dihydropyridine-3-carboxamide]: the IC50 worked out at 444 nM on human MET kinase D1228N; 59.2 nM in test [1]; 79 nM in test [2]; 397 nM at human MET kinase Y1230H; 223 nM on human MET kinase D1228H; 166 nM at human MET kinase Y1230S. For the same molecule, the IC50 in test [3] came out at 16 nM.

Turning to `CCOc1ccc2nccc(Oc3ccc(NC(=O)c4cn(C(C)C)cc(-c5ccc(F)cc5)c4=O)nc3)c2c1` [Example 51, N-(5-((6-ethoxyquinolin-4-yl)oxy)pyridin-2-yl)-5-(4-fluorophenyl)-1-isopropyl-4-oxo-1,4-dihydropyridine-3-carboxamide], the IC50 amounted to 178 nM at human MET kinase D1228N; 22.2 nM in test [1]; 14 nM in test [2]; 200 nM at human MET kinase Y1230H; 59.5 nM at human MET kinase D1228H; 44 nM at human MET kinase Y1230S. The IC50 in test [3] was found to be 5 nM.

As for `CCOc1ccc2c(Oc3ccc(NC(=O)c4cn(C(C)C)cc(-c5ccc(F)cc5)c4=O)nc3)ccnc2c1` [Example 52, N-(5-((7-ethoxyquinolin-4-yl)oxy)pyridin-2-yl)-5-(4-fluorophenyl)-1-isopropyl-4-oxo-1,4-dihydropyridine-3-carboxamide], the IC50 on human MET kinase D1228N came to 26.3 nM; in test [1] it was 14.7 nM; in test [2] it was 11 nM; at human MET kinase Y1230H, 32.6 nM; on human MET kinase D1228H, 14.5 nM; at human MET kinase Y1230S, 14.3 nM. The IC50 in test [3] stood at 4 nM.

On to `COc1cc2nccc(Oc3cnc(NC(=O)c4cn(C(C)C)cc(-c5ccc(F)cc5)c4=O)nc3)c2cc1OC` [Example 54, N-(5-((6,7-dimethoxyquinolin-4-yl)oxy)pyrimidin-2-yl)-5-(4-fluorophenyl)-1-isopropyl-4-oxo-1,4-dihydropyridine-3-carboxamide], for which the IC50 on human MET kinase D1228N is 8.3 nM; in test [1] it was 4.7 nM; in test [2], 10 nM; at human MET kinase Y1230H it was 7.2 nM; at human MET kinase D1228H, 3.8 nM; at human MET kinase Y1230S, 3.2 nM. Further, the IC50 in test [3] is 5 nM.

For the molecule `COc1cc2nccc(Oc3cnc(NC(=O)c4cn(C(C)C)c(C)c(-c5ccc(F)cc5)c4=O)nc3)c2cc1OC` [Example 55, N-(5-((6,7-dimethoxyquinolin-4-yl)oxy)pyrimidin-2-yl)-5-(4-fluorophenyl)-1-isopropyl-6-methyl-4-oxo-1,4-dihydropyridine-3-carboxamide], the IC50 came out at 3.4 nM at human MET kinase D1228N; 2.8 nM in test [1]; 5 nM in test [2]; 2.8 nM at human MET kinase Y1230H; 2.2 nM at human MET kinase D1228H; 2.6 nM on human MET kinase Y1230S. Moreover, the IC50 in test [3] stood at 2 nM.

On to `COc1cc2c(Oc3ccc(NC(=O)c4cn(C(C)C)cc(-c5ccc(F)cc5)c4=O)nc3)ccnc2cc1OCCCN1CCOCC1` [Example 56, 5-(4-fluorophenyl)-1-isopropyl-N-(5-((6-methoxy-7-(3-morpholinopropoxy)quinolin-4-yl)oxy)pyridin-2-yl)-4-oxo-1,4-dihydropyridine-3-carboxamide], for which the IC50 is 4.3 nM at human MET kinase D1228N; 3.9 nM in test [1]; 6 nM in test [2]; 5.2 nM at human MET kinase Y1230H; 1.9 nM at human MET kinase D1228H; 3 nM at human MET kinase Y1230S. The IC50 in test [3] was 3 nM.

Take `COc1cc2ncc(C#N)c(Oc3ccc(NC(=O)c4cn(C(C)C)cc(-c5ccc(F)cc5)c4=O)nc3)c2cc1OC` [Example 57, N-(5-((3-cyano-6,7-dimethoxyquinolin-4-yl)oxy)pyridin-2-yl)-5-(4-fluorophenyl)-1-isopropyl-4-oxo-1,4-dihydropyridine-3-carboxamide]: the IC50 on human MET kinase D1228N is 1060 nM; in test [1], 297 nM; in test [2] it was 29 nM; at human MET kinase Y1230H it was 789 nM; on human MET kinase D1228H, 532 nM; at human MET kinase Y1230S, 514 nM. For the same molecule, the half-maximal inhibitory concentration (IC50) in test [3] stood at 12 nM.

For `COc1cc2nccc(Oc3ccc(NC(=O)c4cn(C(C)C)cc(-c5ccc(F)cc5)c4=O)cn3)c2cc1OC` [Example 58, N-(6-((6,7-dimethoxyquinolin-4-yl)oxy)pyridin-3-yl)-5-(4-fluorophenyl)-1-isopropyl-4-oxo-1,4-dihydropyridine-3-carboxamide], the IC50 on human MET kinase D1228N is 7.7 nM; in test [1], 2.7 nM; in test [2], 2 nM; on human MET kinase Y1230H, 5.3 nM; on human MET kinase D1228H it was 3.5 nM; on human MET kinase Y1230S it was 2.7 nM. In test [3], the IC50 is 1 nM.

Broadly, the IC50 is the point on the concentration scale where inhibition reaches its midpoint.
